Test results from PubChem BioAssay (NCI).
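Where inhibition never reached the appropriate level, the endpoint shown equals the highest concentration tested. Otherwise, values were interpolated linearly from a five-concentration, 48-hour dose response in 96-well plates. At the GI50, growth is halved. TGI marks complete inhibition of growth.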

Legend:
Assay in all cases: NCI-60 cell line screen, 48 h
UO-31 renal = system: UO-31 renal
M14 melanoma = system: M14 melanoma
HS 578T breast = system: HS 578T breast
MDA-MB-435 = system: MDA-MB-435
UACC-62 melanoma = system: UACC-62 melanoma
MDA-N = system: MDA-N
NCI-H522 lung = system: NCI-H522 lung
U251 CNS = system: U251 CNS
RPMI-8226 leukemia = system: RPMI-8226 leukemia
RXF 393 renal = system: RXF 393 renal

Row | SMILES | TGI (UO-31 renal) [µM] | TGI (M14 melanoma) [µM] | TGI (HS 578T breast) [µM] | TGI (MDA-MB-435) [µM] | TGI (UACC-62 melanoma) [µM] | TGI (MDA-N) [µM] | TGI (NCI-H522 lung) [µM] | TGI (U251 CNS) [µM] | TGI (RPMI-8226 leukemia) [µM] | TGI (RXF 393 renal) [µM] | GI50 (HS 578T breast) [µM] | GI50 (RXF 393 renal) [µM] | GI50 (MDA-MB-435) [µM] | GI50 (NCI-H522 lung) [µM] | GI50 (UO-31 renal) [µM] | GI50 (M14 melanoma) [µM] | GI50 (UACC-62 melanoma) [µM] | GI50 (U251 CNS) [µM] | GI50 (RPMI-8226 leukemia) [µM]
1 | CN(C)CCNC(=O)c1cccc2c(NC(CCCN=C(N)N)C(=O)O)c3ccccc3nc12 (configuration not stated) | > 100 | > 100 | 33.2 | 41.6 | 60 | > 100 | 29.5 | > 100 | > 100 |  |  |  |  |  |  |  |  |  | 
2 | OC[C@@H](O)[C@H](O)[C@H](O)[C@@H](O)C1SCCCS1 | > 100 | > 100 |  | > 100 | > 100 | > 100 |  | > 100 | > 100 | > 100 |  |  |  |  |  |  |  |  | 
3 | Cn1cnc([N+](=O)[O-])c1Sc1nnc(-c2ccc(Cl)cc2)n1C | 32.8 | 26.6 |  |  | 29 |  | 15.6 | 30.4 | 71.3 | 17 |  |  |  |  |  |  |  |  | 
4 | CC(=O)Nc1ccc(S(=O)(=O)Nc2cnc3ccccc3n2)cc1 | > 100 | > 100 |  |  | > 100 |  | > 100 | > 100 | > 100 | > 100 |  |  |  |  |  |  |  |  | 
5 | Nc1ccc(Oc2ccc(C34CC5CC(C3)CC(c3ccc(Oc6ccc(N)c(O)c6)cc3)(C5)C4)cc2)cc1O | 3.23 | 3.05 | 4.97 |  | 6.59 |  | 3.33 | 2.72 | > 100 | 3.33 |  |  |  |  |  |  |  |  | 
6 | CC(=O)O[C@H]1C(=O)[C@@]2(C)C(C(OC(=O)c3ccccc3)[C@]3(O)CC(OC(=O)C(O)C(NC(=O)c4cccc(Cl)c4)c4ccccc4)C(C)=C1C3(C)C)[C@]1(OC(C)=O)CO[C@@H]1C[C@@H]2O (some centres not stated) |  | > 10 |  | 0.417 |  | 0.334 | 3.83 | 8.9 | > 10 |  |  |  |  |  |  |  |  |  | 
7 | Cc1ccc2c(=O)cc(-c3ccccc3)[nH]c2n1 | > 81.8 |  |  | 0.0321 |  | 0.0999 | 2.94 | > 26.3 | > 15.1 | 0.486 |  |  |  |  |  |  |  |  | 
8 | COc1ccc(CNCCN2C(=O)c3ccc4c5c(ccc(c35)C2=O)C(=O)N(CCNCc2ccc(OC)c(OC)c2OC)C4=O)c(OC)c1OC |  |  | 2.81 | 0.801 |  |  | 1.19 |  |  | 1.42 | 0.985 | 0.279 | 0.25 | 0.519 |  |  |  |  | 
9 | COc1ccccc1-c1nc[nH]c1-c1ccccc1OC | > 100 | 78.3 |  |  |  | 34.9 | 42.1 |  | > 100 | 87.1 |  |  |  |  |  |  |  |  | 
10 | O=C(/C=C/c1cc2ccccc2[nH]c1=O)c1ccc(O)cc1 | 26.7 | 6.57 | > 100 | 16.8 | 8.73 |  | 3.29 | 10.9 | 24.8 | 3.23 | 6.14 | 1.65 | 2.94 | 1.7 | 4.38 | 2.6 | 2.88 | 2.6 | 3.2
11 | CN1C(=O)c2c(c3c4ccccc4n(C)c3c3c2c2ccccc2n3C)C1=O | > 100 | > 100 |  | > 100 | > 100 | > 100 | > 100 | > 100 | > 100 |  |  |  |  |  |  |  |  |  | 
12 | Cc1ccnc2[nH]c(-c3ccc(Cl)cc3)cc(=O)c12 | > 100 | > 100 | > 100 |  | > 100 | 4.59 | > 100 | > 100 | > 58.5 | > 100 |  |  |  |  |  |  |  |  | 
13 | CCc1cc2c(cc1O)CC[C@@H]1[C@@H]2CC[C@]2(C)[C@@H](O)CC[C@@H]12 | 21.8 | 19.8 |  | 4.99 |  | 8.62 | 27.3 | 16.7 |  |  |  |  |  |  |  |  |  |  | 
14 | CCN1CC2(CO)CCC(OC)C34C5CC6C(OC)CC(O)(C5C6OC)C(O)(C(OC)C23)C14 (configuration not stated) | > 375 |  |  |  | > 375 |  | > 375 | > 375 | > 375 | > 375 |  |  |  |  |  |  |  |  | 
15 | O=C(O)Cn1cnc2c(=O)[nH]c(Nc3ccccc3)nc21 |  | > 100 | > 100 | > 100 | > 100 | > 100 | > 100 | > 100 | > 100 |  |  |  |  |  |  |  |  |  | 
16 | OC[C@H](O)[C@@H](OCc1ccccc1)[C@H](NCc1ccccc1)c1cccs1 | 68.8 | > 100 |  | > 100 | > 100 | > 100 | > 100 | > 100 | > 100 |  |  |  |  |  |  |  |  |  | 
17 | O=C(N/N=C/c1ccc(O)cc1)NNCCO | > 100 | > 100 | > 100 | > 100 | > 100 | > 100 | > 100 | > 100 |  |  |  |  |  |  |  |  |  |  | 
18 | C=C1C(=O)OC2C=C(C)CC3C=C(CCC=C(C)CCC12)C(=O)O3 (configuration not stated) | 234 |  |  |  | 113 |  | 57.9 | 121 | 155 | 82.3 |  |  |  |  |  |  |  |  | 
19 | CSCCC(NOC(=O)Cc1ccccc1)P(=O)(O)c1ccccc1 (configuration not stated) | > 100 | > 100 | > 100 | > 100 |  | > 100 | > 100 | > 100 | > 100 |  |  |  |  |  |  |  |  |  | 
20 | CCN(CC)CCNC(=O)C1COc2ccc(-c3cc(=O)c4ccccc4o3)cc2O1 (configuration not stated) | 29.6 |  |  |  | 31.9 |  | 32.5 | > 65.2 | 55.2 | 35.4 |  |  |  |  |  |  |  |  | 
